Source: patent US11040019B2, “Selective estrogen-receptor modulators (SERMs) confer protection against photoreceptor degeneration” (THE UNITED STATES OF AMERICA, as represented by the …, priority 2016, dated 2021)

Tested on: 661W photoreceptors
Assay: Microglia-photoreceptor interaction assay: 661W viability (MTT) in conditioned media of LPS-stimulated BV2 microglia
Conditions: BV2 pre-treated before LPS 50 ng/ml; 661W exposed 24 h; TMX 3 and 5 μg/ml, raloxifene 0.3-3 μM, G-1 1 μM, GPR30 antagonist 100 nM
Protocol: 661W photoreceptors cultured in 96-well plate (4×10^4 cells/well) were exposed to conditioned media from LPS-stimulated (50 ng/ml) BV2 microglia (cultured in 6-well plate with a cell density of 4×10^5 cells/well) for 48 h. […] Cell viability of 661W photoreceptors were assessed using a MTT assay.
Murine microglial cell line (BV-2) cells and photoreceptor-like cell line (661W) were used in this study. BV-2 cells were plated in 6-well plates at the density of 4×10^5/well and cultured for 24 h in DMEM medium (Life Technologies Corporation, Grand Island, N.Y.) containing 5% heat inactivated FBS (Life Technologies Corporation, Grand Island, N.Y.) at 37° C. in a humidified atmosphere of 5% CO2. […] Cell viability of 661W photoreceptors were assessed using a MTT cell proliferation assay kits (ATCC, Manassas, Va.) following the manufacturer's specifications. […]
661W photoreceptors cultured in 96-well plate (4×10^4 cells/well) were exposed to conditioned media from LPS-stimulated (50 ng/ml) BV2 microglia (cultured in 6-well plate with a cell density of 4×10^5 cells/well) for 24 h. […] Cell viability of 661W photoreceptors were assessed using a MTT assay.

## CC(=O)c1ccc2c(c1)C1C=CCC1C(c1cc3c(cc1Br)OCO3)N2 (centres unmarked) [G-1]
  neurotoxicity of microglia-conditioned media to 661W photoreceptors (viability, MTT): significantly reduced neurotoxicity

## O=C(c1ccc(OCCN2CCCCC2)cc1)c1c(-c2ccc(O)cc2)sc2cc(O)ccc12 [raloxifene, [6-hydroxy-2-(4-hydroxyphenyl)-benzothiophen-3-yl]-[4-[2-(1-piperidyl)ethoxy]phenyl]-methanone]
  neurotoxicity of microglia-conditioned media to 661W photoreceptors (viability, MTT): significantly reduced neurotoxicity
